Reference: EP1379135B1, “FORMULATIONS COMPRISING ENTRAPPED ACTIVE INGREDIENTS AND USES THEREOF” (THE SCRIPPS RESEARCH INSTITUTE, priority 2001, dated 2002)
Entries after “also recorded” stand apart in the source; their conditions may differ.

Assays:
[1] = tested on: IL-1β induced NO production in normal human articular chondrocytes; test: IL-1β induced NO production in cultured chondrocytes (NO2 accumulation, Griess reaction); format: cell-based; conditions: for inhibitory activity on IL-1β induced NO production: concentration of 10 mM
Description: Chondrocytes were isolated from the cartilage by collagenase digestion and maintained in continuous monolayer cultures in DMEM containing 10% fetal bovine serum (FBS). Cell viability after chondrocyte isolation by collagenase digestion of normal cartilage was >95%. This level was maintained for at least 96 hrs post mortem. […] Experiments reported were performed with primary or first passage cells.
Chondrocytes were plated at 40,000 cells/well in 96-well plates in the presence of 1 % FBS. After 48 h, the medium was changed, and the cells were stimulated with IL-1β (Sigma) at a concentration of 5 ng/ml for 24 h. NO production was detected as NO2 accumulation in the culture supernatants by the Griess reaction as described elsewhere (Heval et al., (1994) Methods Enzymol. 233:250). IL-6 in the culture supernatants was measured by ELISA (R&D Systems, Minneapolis, MN) in accordance with the supplier's protocol.

[2] = tested on: TNFα induced nitric oxide (NO) production in normal human articular chondrocytes; test: TNFα induced NO production in chondrocytes; format: cell-based
chondrocytes = test: Cell viability, MTT assay; format: cell-based, human; conditions: up to 20 mM
bradykinin-induced pain = test: Bradykinin-induced pain after intra-articular administration (walking behavior pain score); format: in vivo, Wistar rats; conditions: intra-articular administration in rats; Figure 6
Description: The purpose of this study was to investigate the analgesic effects of GlcNAc with or without liposomal formulations, injected intra-articularly into the joint of Wistar rats. Pain was induced by intra-articular administration of bradykinin. Adult male Wistar rats with a weight range from 220g to 250g were obtained from Laboratory Animals Centre, National University of Singapore. Bradykinin and GlcNAc were obtained from Sigma. The liposomes were prepared as described above.
50 µl of GlcNAc solution or an GIcNAc formulated liposome suspension was injected into a rat joint cavity. An equal volume of saline was given intra-articularly as a control. 50 µl of bradykinin (60 µg/ml or at the indicated concentration) was given intra-articularly at different time points following the administration of GlcNAc.
Changes in walking behavior caused by intra-articular injection of bradykinin were used to define induced pain criteria in rats. The methods used to observe the pain response are defined in Table 2. The degree of pain was assigned a score according to the criteria in Table 3.

Molecule | inhibitory activity on IL-1β induced NO production [1] | TNFα induced nitric oxide (NO) production [2] | NO production triggered by IL-1β [1] | further results
O=C[C@H](O)[C@@H](O)[C@H](O)[C@H](O)C(=O)O [glucuronic acid] | did not inhibit | did not inhibit |  | 
N[C@H]1C(O)O[C@H](CO)[C@@H](O)[C@@H]1O (stereo partly shown) [GA, glucosamine] |  | inhibit | suppressed NO production; also recorded: measurably inhibited NO production in the lower millimolar range | concentrations not effective in inhibiting NO production [1]: below 1 mM; IC50 ([1]; Homo sapiens, Chondrocyte, IL-1β 5 ng/ml for 24 h, GlcNAc vs GA p < 0.01, read-out: IC50 (inhibition of NO production)): 14.9 ± 2.1 mM; cell viability (chondrocytes): Neither GA nor GlcNAc at dosages up to 20 mM affected cell viability
Bradykinin (RPPGFSPFR; Bradykinin; UniProt P01042 381-389, looked up) |  |  |  | pain scores, dose response (bradykinin-induced pain): Higher pain scores correlate with the amount of injected Bradykinin
CC(=O)N[C@H]1C(O)O[C@H](CO)[C@H](O)[C@@H]1O (stereo partly shown) [N-acetylgalactosamine] | demonstrated inhibitory activity |  |  | 
CC(=O)N[C@@H]1C(O)O[C@H](CO)[C@@H](O)[C@@H]1O (stereo partly shown) [N-acetylmannosamine] | did not inhibit | did not inhibit |  | 
CC(=O)N[C@H]1[C@H](O[C@H]2[C@H](O)[C@@H](NC(C)=O)C(O)O[C@@H]2CO)O[C@H](CO)[C@@H](O)[C@@H]1O (stereo partly shown) [GlcNAc dimers, N,N'-diacetylchitobiose] |  |  | did not express inhibitory activity | 
CC(=O)N[C@H]1[C@H](O[C@H]2[C@H](O)[C@@H](NC(C)=O)C(O)O[C@@H]2CO)O[C@H](CO)[C@@H](O[C@@H]2O[C@H](CO)[C@@H](O)[C@H](O)[C@H]2NC(C)=O)[C@@H]1O (stereo partly shown) [trimers, N,N',N"-triacetylchitotriose] |  |  | did not express inhibitory activity | 
